The values that follow come from US6063926A, “Substituted oximes as neurokinin antagonists” (Schering Corporation, priority 1998, dated 2000).

The target of one assay is T1, NK2 receptor (Homo sapiens, UniProt P21452).
T1 sequence (P21452 1-398): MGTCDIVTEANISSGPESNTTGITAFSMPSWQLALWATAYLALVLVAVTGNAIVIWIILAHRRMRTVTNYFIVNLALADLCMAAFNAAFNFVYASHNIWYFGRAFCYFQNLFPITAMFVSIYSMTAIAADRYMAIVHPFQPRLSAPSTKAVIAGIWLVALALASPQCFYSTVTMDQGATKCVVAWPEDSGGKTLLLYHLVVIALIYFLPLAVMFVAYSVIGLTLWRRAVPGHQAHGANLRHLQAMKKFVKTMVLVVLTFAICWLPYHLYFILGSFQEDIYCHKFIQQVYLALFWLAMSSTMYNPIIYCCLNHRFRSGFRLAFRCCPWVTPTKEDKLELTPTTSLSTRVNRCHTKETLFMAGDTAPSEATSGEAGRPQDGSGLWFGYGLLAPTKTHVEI
As to the kind of experiment: neurokinin receptor binding assay, NK2 (Ki). The note with it: read-out: Ki (NK2). An excerpt: (§1) The in vitro and in vivo activity of the compounds of formula I can be determined by various procedures known in the art, such as a test for their ability to inhibit the activity of the NK1 agonist Substance P, an isolated hamster trachea NK2 assay, a test of the effect of NK1 antagonists on Substance P-induced airway microvascular leakage, measurement of NK2 activity in vivo in guinea pigs, measurement of bronchoconstriction due to NKA, and neurokinin receptor binding assay(s). Typical procedures are described in WO96/34857, published Nov. 7, 1996. NK3 activity is determined by following a procedure similar to that described in the literature, e.g., Molecular Pharmacol., 48 (1995), p. 711-716.
(§2) % Inhibition is the difference between the percent of maximum specific binding (MSB) and 100%. The percent of MSB is defined by the following equation, wherein "dpm" is disintegrations per minute: [formula]
(§3) Using the test procedures described above, the following 35 data (Ki) were obtained for exemplified compounds: […]

In a further assay the target is NK1 receptor (Homo sapiens, UniProt P25103). Nature of the assay: neurokinin receptor binding assay, NK1 (Ki). The note with it: read-out: Ki (NK1).
Sequence of NK1 receptor (P25103 whole entry): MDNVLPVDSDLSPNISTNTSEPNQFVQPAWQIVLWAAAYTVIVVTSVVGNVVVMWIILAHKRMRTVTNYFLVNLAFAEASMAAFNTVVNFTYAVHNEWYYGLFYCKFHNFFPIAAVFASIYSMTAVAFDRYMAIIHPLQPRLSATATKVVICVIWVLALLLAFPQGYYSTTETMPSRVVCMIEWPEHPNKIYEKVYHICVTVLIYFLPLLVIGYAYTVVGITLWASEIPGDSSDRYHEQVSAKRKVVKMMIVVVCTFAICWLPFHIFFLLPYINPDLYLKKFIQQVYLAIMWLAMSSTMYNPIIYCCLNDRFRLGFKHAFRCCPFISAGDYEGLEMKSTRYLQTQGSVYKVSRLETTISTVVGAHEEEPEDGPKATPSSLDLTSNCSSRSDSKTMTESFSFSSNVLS
From the text: as §1, §2, §3

The structures appear in SMILES notation.

What is called Ki is a dissociation constant, usually derived from enzyme kinetics or from competition with a known ligand.

For `Cc1cc(C)cc(C(=O)N(C)CC(=NOCC(N)=NO)C(CCN2CCC(N3CCCC(CC(=O)N(C)C)C3=O)CC2)c2ccc(Cl)c(Cl)c2)c1` (stereo not shown) [Example 19C], the Ki at NK2 receptor and on NK1 receptor was 0.2 nM each time.

For `Cc1cc(C)cc(C(=O)N(C)CC(=NOCC(=O)Nc2nncs2)C(CCN2CCC(N3CCCC(CC(=O)N(C)C)C3=O)CC2)c2ccc(Cl)c(Cl)c2)c1` (stereo not shown) [Example 19D], the figures for the Ki on NK2 receptor and at NK1 receptor were 1.4 nM and 0.9 nM, respectively.

As for `CONC(=O)CON=C(CN(C)C(=O)c1cc(C)cc(C)c1)C(CCN1CCC(N2CCCC(CC(=O)N(C)C)C2=O)CC1)c1ccc(Cl)c(Cl)c1` (stereo not shown) [Example 19E], the figures for the inhibition constant (Ki) on NK2 receptor and on NK1 receptor were 1.8 nM and 0.6 nM, respectively.

As to `COc1cc(C(=O)N(C)CC(=NOCC(N)=NO)C(CCN2CCC(N3CCCCC3=O)CC2)c2ccc(Cl)c(Cl)c2)cc(OC)c1C` (stereo not shown) [Example 21B], the Ki on NK2 receptor came out at 0.5 nM; on NK1 receptor it was 6 nM.

For `COc1cc(C(=O)N(C)CC(=NOCC(N)=NO)C(CCN2CCC(O)(c3ccccc3)CC2)c2ccc(Cl)c(Cl)c2)cc(OC)c1OC` (stereo not shown) [Example 23], the Ki came out at 0.5 nM on NK2 receptor and 0.8 nM at NK1 receptor.

Take `CON=C(CN(C)C(=O)c1cc(Cl)cc(Cl)c1)C(CCN1CCC(N2CCCC(CC(=O)N3CCC(OC)CC3)C2=O)CC1)c1ccc(Cl)c(Cl)c1` (stereo not shown) [Example 25]: the Ki was determined as 0.7 nM at NK2 receptor and 0.9 nM at NK1 receptor.

For `CON=C(CN(C)C(=O)c1cc(C)cc(Cl)c1)C(CCN1CCC(N2CCCCC2=O)CC1)c1ccc(Cl)c(Cl)c1` (stereo not shown) [Example 26], the Ki stood at 1.3 nM on NK2 receptor and 1 nM on NK1 receptor.

For the molecule `CON=C(CN(C)C(=O)c1cc(C)cc(Cl)c1)C(CCN1CCC(N2CCCC(CC(=O)N(C)C)C2=O)CC1)c1ccc(Cl)c(Cl)c1` (stereo not shown) [Example 27], the Ki worked out at 1.2 nM on NK2 receptor and 0.7 nM on NK1 receptor.

As for `CCN(CC(=NOC)C(CCN1CCC(N2CCCC(CC(=O)NC)C2=O)CC1)c1ccc(Cl)c(Cl)c1)C(=O)c1cc(Cl)cc(Cl)c1` (stereo not shown) [Example 28B], the inhibition constant Ki amounted to 1 nM at NK2 receptor and 0.8 nM on NK1 receptor.

With `CCN(CC(=NOC)C(CCN1CCC(N2CCC[C@H](CC(N)=O)C2=O)CC1)c1ccc(Cl)c(Cl)c1)C(=O)c1cc(Cl)cc(Cl)c1` (stereo partly shown) [Example 28C], the Ki on NK2 receptor amounted to 0.6 nM; at NK1 receptor it was 0.4 nM.

Regarding `CNC(=O)CC1CCCN(C2CCN(CCC(C(CNC(=O)c3cc(Cl)cc(Cl)c3)=NOC)c3ccc(Cl)c(Cl)c3)CC2)C1=O` (stereo not shown) [Example 29B], the Ki on NK2 receptor came to 1.3 nM; on NK1 receptor it was 5.2 nM.

With `CON=C(CNC(=O)c1cc(Cl)cc(Cl)c1)C(CCN1CCC(N2CCC[C@H](CC(N)=O)C2=O)CC1)c1ccc(Cl)c(Cl)c1` (stereo partly shown) [Example 29C], the Ki amounted to 0.7 nM at NK2 receptor and 2.6 nM at NK1 receptor.

Regarding `CON=C(CN(C)C(=O)c1cc(C)nc(Cl)c1)C(CCN1CCC(O)(c2ccccc2)CC1)c1ccc(Cl)c(Cl)c1` (stereo not shown) [Example 30A], the Ki at NK2 receptor came out at 1.9 nM; on NK1 receptor, 1.4 nM.

As for `Cc1cc(C(=O)N(C)CC(=NOCC(N)=NO)C(CCN2CCC(O)(c3ccccc3)CC2)c2ccc(Cl)c(Cl)c2)cc(Cl)n1` (stereo not shown) [Example 31], the Ki on NK2 receptor was 1.8 nM; at NK1 receptor, 0.4 nM.

For `CNC(=O)CC1CCCN(C2CCN(CCC(C(CN(C)C(=O)c3cc(C)cc(C)c3)=NOC)c3ccc(Cl)c(Cl)c3)CC2)C1=O` (stereo not shown) [Example 35], the Ki was 0.3 nM on NK2 receptor and 0.6 nM on NK1 receptor.

With `CON=C(CN(C)C(=O)c1cc(Cl)cc(Cl)c1)C(CCN1CCC(c2ccccc2[S+](C)[O-])CC1)c1ccc(Cl)c(Cl)c1` (stereo not shown) [Example 36], the results for the Ki at NK2 receptor and on NK1 receptor were 1 nM and 0.8 nM, respectively.

Consider `CON=C(N)CON=C(CN(C)C(=O)c1cc(OC)c(OC)c(OC)c1)C(CCN1CCC(O)(c2ccccc2)CC1)c1ccc(Cl)c(Cl)c1` (stereo not shown) [Example 37], for which the Ki at NK2 receptor and at NK1 receptor was 0.7 nM in each case.
